Test results published in PMC8326665, “Branebrutinib (BMS-986195), a Bruton’s Tyrosine Kinase Inhibitor, Resensitizes P-Glycoprotein-Overexpressing Multidrug-Resistant Cancer Cells to Chemotherapeutic Agents” (Frontiers in Cell and Developmental Biology, 2021).

Target: T1, P-glycoprotein (P-gp/ABCB1) (Homo sapiens, UniProt P08183)
T1 construct: full-length human P-gp; MDR1 baculovirus in High-Five insect cell total membranes (ATPase); transfected MDR19-HEK293 cells (calcein efflux)
Test: vanadate-sensitive ATPase activity, endpoint inorganic phosphate assay, insect cell membranes
Assay type: biochemical
Excerpt: vanadate-sensitive ATPase activity, endpoint inorganic phosphate assay, insect cell membranes on P-glycoprotein (P-gp/ABCB1) | half maximal effective concentration (EC50) value

T1 sequence (P08183 whole entry): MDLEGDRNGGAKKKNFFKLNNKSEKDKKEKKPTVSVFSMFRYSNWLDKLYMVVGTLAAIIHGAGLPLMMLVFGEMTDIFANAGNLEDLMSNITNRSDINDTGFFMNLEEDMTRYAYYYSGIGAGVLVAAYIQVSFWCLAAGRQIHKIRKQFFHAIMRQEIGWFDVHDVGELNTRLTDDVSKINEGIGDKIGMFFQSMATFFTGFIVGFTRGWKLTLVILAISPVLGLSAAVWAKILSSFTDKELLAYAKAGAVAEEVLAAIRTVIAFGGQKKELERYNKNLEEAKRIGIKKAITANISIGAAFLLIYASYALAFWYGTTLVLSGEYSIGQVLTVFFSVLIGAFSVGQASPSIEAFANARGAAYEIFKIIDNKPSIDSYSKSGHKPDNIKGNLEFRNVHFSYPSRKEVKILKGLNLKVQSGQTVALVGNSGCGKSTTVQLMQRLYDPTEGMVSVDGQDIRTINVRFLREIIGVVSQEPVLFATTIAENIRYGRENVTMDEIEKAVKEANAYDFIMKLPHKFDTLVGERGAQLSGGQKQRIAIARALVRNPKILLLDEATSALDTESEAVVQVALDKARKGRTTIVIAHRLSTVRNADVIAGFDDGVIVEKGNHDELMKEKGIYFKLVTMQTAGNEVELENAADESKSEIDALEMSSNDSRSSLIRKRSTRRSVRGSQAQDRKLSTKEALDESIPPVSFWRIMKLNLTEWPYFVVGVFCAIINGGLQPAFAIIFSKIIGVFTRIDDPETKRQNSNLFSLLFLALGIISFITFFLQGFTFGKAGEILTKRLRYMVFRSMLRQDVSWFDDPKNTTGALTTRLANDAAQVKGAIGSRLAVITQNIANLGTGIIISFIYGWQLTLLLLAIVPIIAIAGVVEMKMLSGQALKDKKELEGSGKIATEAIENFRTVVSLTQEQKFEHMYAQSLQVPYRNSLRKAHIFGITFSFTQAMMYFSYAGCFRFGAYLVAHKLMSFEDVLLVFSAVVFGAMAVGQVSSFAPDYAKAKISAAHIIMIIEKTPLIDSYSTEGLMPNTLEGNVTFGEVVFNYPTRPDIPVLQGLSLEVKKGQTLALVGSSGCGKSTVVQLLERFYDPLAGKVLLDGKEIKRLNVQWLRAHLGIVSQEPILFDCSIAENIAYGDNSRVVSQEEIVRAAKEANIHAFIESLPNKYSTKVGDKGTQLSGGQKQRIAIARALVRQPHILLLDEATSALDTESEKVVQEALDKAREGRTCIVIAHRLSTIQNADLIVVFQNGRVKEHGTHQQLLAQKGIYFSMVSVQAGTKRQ

Structure (SMILES): CC#CC(=O)N[C@H]1CCCN(c2c(F)cc(C(N)=O)c3[nH]c(C)c(C)c23)C1 [branebrutinib]
- EC50: ~4.5 µM
